Data on 7 compounds can be found in PubChem BioAssay (NCI).

Some test systems named below: A549 NSCLC; EKVX NSCLC; HL-60(TB) leukemia; HOP-92 NSCLC; MDA-MB-231 breast; MDA-MB-435; NCI/ADR-RES ovarian; OVCAR-3 ovarian; SF-268 CNS; SK-MEL-5 melanoma.
Assay in all cases: NCI tumour cell line growth inhibition, 48 h

“And” between values parts separate entries of the source, which are not always exact repeats. Identical values can stand only once.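 Test compounds were applied to cells in 96-well plates for 48 hours at 5 doses. The concentration for 50% growth inhibition is given as GI50. TGI: concentration producing complete growth inhibition.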 A value given as a limit tells only on which side of the number the result lay.

Consider `C=CC(=O)NCc1cccc(Nc2ncc(Br)c(NCCCNC(=O)C3CCC3)n2)c1`, for which the GI50 is 1490 nM and 901 nM in the experiment with A549 NSCLC; 1590 nM and 2590 nM in the experiment with EKVX NSCLC; 821 nM and 893 nM in the experiment with HL-60(TB) leukemia; 637 nM and 596 nM in the experiment on HOP-92 NSCLC; 567 nM and 463 nM with MDA-MB-231 breast; 2330 nM and 2140 nM in the experiment on MDA-MB-435. For the same compound, the GI50 in the experiment on NCI/ADR-RES ovarian is 7280 nM and 7940 nM; in the experiment with OVCAR-3 ovarian it was 1570 nM and 1180 nM; in the experiment on SF-268 CNS it was 297 nM and 296 nM; in the experiment with SK-MEL-5 melanoma it was 2230 nM and 1870 nM. For the same compound, the TGI with A549 NSCLC was 12500 nM and 11600 nM; with EKVX NSCLC it was 6070 nM and 14900 nM; with HL-60(TB) leukemia it was 5960 nM and > 25000 nM; in the experiment on HOP-92 NSCLC it was 5210 nM and 16400 nM; in the experiment on MDA-MB-231 breast it was 11600 nM and 1800 nM; in the experiment on MDA-MB-435, 8470 nM and 5750 nM. Besides, the TGI is 12500 nM and > 25000 nM with NCI/ADR-RES ovarian; 4780 nM and 8160 nM with OVCAR-3 ovarian; 2570 nM and 4070 nM in the experiment on SF-268 CNS; 5350 nM and 5810 nM in the experiment on SK-MEL-5 melanoma.

On to `COc1ccc2c(CN3CCC(C(=O)O)CC3)cc3cc4c(cc3c2c1)OCO4`, for which the GI50 in the experiment on A549 NSCLC is 1770 nM; with EKVX NSCLC it was 3690 nM; in the experiment with HL-60(TB) leukemia, 3970 nM; with HOP-92 NSCLC it was 1620 nM; in the experiment on MDA-MB-231 breast, 3870 nM; in the experiment with MDA-MB-435, 2660 nM. Further, the GI50 is 2350 nM in the experiment with NCI/ADR-RES ovarian, 2850 nM in the experiment with OVCAR-3 ovarian, 3670 nM with SF-268 CNS and 1620 nM with SK-MEL-5 melanoma. The TGI in the experiment with A549 NSCLC was 4340 nM; in the experiment with EKVX NSCLC, 20600 nM; in the experiment on HL-60(TB) leukemia, 15300 nM; in the experiment on HOP-92 NSCLC, 5340 nM; in the experiment on MDA-MB-231 breast, 30700 nM; in the experiment with MDA-MB-435, 7420 nM. For the same compound, the TGI in the experiment with NCI/ADR-RES ovarian stood at 6990 nM; in the experiment with OVCAR-3 ovarian it was 9640 nM; in the experiment with SF-268 CNS, 25400 nM; in the experiment on SK-MEL-5 melanoma, 3140 nM.

Turning to `COc1ccc2c(c1)[nH]c(=O)c1c3cc(OC)ccc3cn21`, the GI50 in the experiment with A549 NSCLC is 26.5 nM; with EKVX NSCLC it was 72.8 nM; in the experiment with HL-60(TB) leukemia, below 10 nM; with HOP-92 NSCLC it was 210 nM; in the experiment on MDA-MB-231 breast it was 43.1 nM; with MDA-MB-435, below 10 nM. For the same compound, the GI50 in the experiment on NCI/ADR-RES ovarian is below 10 nM; with OVCAR-3 ovarian it was below 10 nM; in the experiment with SF-268 CNS, below 15.4 nM; with SK-MEL-5 melanoma it was below 12.8 nM. The TGI in the experiment on A549 NSCLC was 1280 nM; in the experiment with EKVX NSCLC it was 2670 nM; in the experiment with HL-60(TB) leukemia it was below 10 nM; in the experiment on HOP-92 NSCLC, 2090 nM; with MDA-MB-231 breast, 985 nM; in the experiment with MDA-MB-435, below 10 nM. In addition, the TGI is 20 nM in the experiment with NCI/ADR-RES ovarian, 20.4 nM in the experiment with OVCAR-3 ovarian, 1440 nM in the experiment on SF-268 CNS and 116 nM with SK-MEL-5 melanoma.

On to `O=C1Nc2c(C(F)(F)F)cccc2[C@@]1(c1ccc(O)cc1)c1ccc(OC(F)(F)F)cc1`, for which the GI50 in the experiment on A549 NSCLC was 18.6 nM; in the experiment with EKVX NSCLC it was 13.4 nM; with HL-60(TB) leukemia it was 5590 nM; in the experiment on HOP-92 NSCLC it was 13.6 nM; with MDA-MB-231 breast, 222 nM; in the experiment with MDA-MB-435, 7920 nM. For the same compound, the GI50 in the experiment with NCI/ADR-RES ovarian was below 10 nM; with OVCAR-3 ovarian it was below 10 nM; in the experiment with SF-268 CNS, 327 nM; in the experiment with SK-MEL-5 melanoma it was 200 nM. Further, the TGI in the experiment with A549 NSCLC was 41.4 nM; with EKVX NSCLC, 35.1 nM; with HL-60(TB) leukemia, 23800 nM; in the experiment on HOP-92 NSCLC, 80.2 nM; with MDA-MB-231 breast it was 18200 nM; in the experiment on MDA-MB-435, 21900 nM. Also, the TGI in the experiment with NCI/ADR-RES ovarian is below 10.5 nM; with OVCAR-3 ovarian, below 17.1 nM; with SF-268 CNS, 17500 nM; with SK-MEL-5 melanoma, 16600 nM.

For the compound `NC1CCC(Nc2nc(NCc3ccc(-c4cccs4)nc3)c3ncn(C4CCCC4)c3n2)CC1` (stereo not drawn), the GI50 in the experiment with A549 NSCLC is 23.7 nM; in the experiment on EKVX NSCLC, 42.6 nM; in the experiment on HL-60(TB) leukemia, 20.6 nM; in the experiment with HOP-92 NSCLC it was 30 nM; in the experiment on MDA-MB-231 breast, 24 nM; in the experiment with MDA-MB-435, 28.2 nM. Further, the GI50 with NCI/ADR-RES ovarian was 244 nM; in the experiment with OVCAR-3 ovarian, 49.2 nM; in the experiment with SF-268 CNS it was 18.8 nM; in the experiment with SK-MEL-5 melanoma it was 280 nM. Moreover, the TGI in the experiment with A549 NSCLC came out at 2040 nM; in the experiment with EKVX NSCLC, 762 nM; in the experiment on HL-60(TB) leukemia it was 64.4 nM; in the experiment with HOP-92 NSCLC, 134 nM; with MDA-MB-231 breast it was 1590 nM; in the experiment with MDA-MB-435 it was 1080 nM. Moreover, the TGI stood at 4290 nM in the experiment on NCI/ADR-RES ovarian, 731 nM in the experiment with OVCAR-3 ovarian, 1080 nM in the experiment on SF-268 CNS and 1280 nM with SK-MEL-5 melanoma.

As for `CC1=CC(=C(c2ccc(N)cc2)c2ccc(N)cc2)C=CC1=N`, the GI50 in the experiment with A549 NSCLC was 2680 nM; with EKVX NSCLC, 1370 nM and 2230 nM; in the experiment with HL-60(TB) leukemia, 482 nM; in the experiment on HOP-92 NSCLC it was 949 nM and 3250 nM; in the experiment on MDA-MB-231 breast it was 2330 nM and 2870 nM; in the experiment with MDA-MB-435 it was 969 nM. Further, the GI50 is 9310 nM and 25700 nM in the experiment with NCI/ADR-RES ovarian; 1410 nM and 2140 nM with OVCAR-3 ovarian; 668 nM in the experiment with SF-268 CNS; 928 nM in the experiment with SK-MEL-5 melanoma. Also, the TGI in the experiment with A549 NSCLC was 20100 nM and 50600 nM and 15900 nM; with EKVX NSCLC it was 20000 nM and 70800 nM and 41500 nM; with HL-60(TB) leukemia, 3510 nM and > 21600 nM; with MDA-MB-435, 10200 nM and > 44800 nM and 15600 nM; with NCI/ADR-RES ovarian, 46600 nM and 61900 nM and > 100000 nM; in the experiment with OVCAR-3 ovarian, 5490 nM and 15100 nM and 5500 nM. The TGI in the experiment with SF-268 CNS is 14400 nM and 19400 nM and 14500 nM; with SK-MEL-5 melanoma it was 2300 nM and 5450 nM and 3410 nM.

With `Cl.Fc1c[c-]c(-c2ccccn2)c(F)c1.[Pt].c1ccc(P(c2ccccc2)C([PH+](c2ccccc2)c2ccccc2)[PH+](c2ccccc2)c2ccccc2)cc1`, the GI50 was 2840 nM in the experiment on A549 NSCLC; 3100 nM in the experiment on EKVX NSCLC; 1950 nM with HL-60(TB) leukemia; 1700 nM in the experiment on HOP-92 NSCLC; 2280 nM in the experiment on MDA-MB-231 breast; 3400 nM with MDA-MB-435. Moreover, the GI50 with NCI/ADR-RES ovarian was 34900 nM; with OVCAR-3 ovarian, 2680 nM; with SF-268 CNS it was 3220 nM; in the experiment on SK-MEL-5 melanoma, 2080 nM. Also, the TGI in the experiment with A549 NSCLC was 20700 nM; in the experiment with EKVX NSCLC it was above 100000 nM; in the experiment on HL-60(TB) leukemia, 6070 nM; in the experiment with HOP-92 NSCLC, 5620 nM; in the experiment on MDA-MB-231 breast, 7060 nM; in the experiment on MDA-MB-435, 16000 nM. Moreover, the TGI was above 100000 nM in the experiment with NCI/ADR-RES ovarian, 8060 nM with OVCAR-3 ovarian, 25100 nM in the experiment with SF-268 CNS and 4530 nM in the experiment on SK-MEL-5 melanoma.
